PubChem BioAssay AID1919008 (Molecular Pharmacology Branch, DTP, NCI, 2023)

Tested on: DMS-114 complex spheroids with HUVEC/MSC, growth % test/control
Test: Anticancer human tumor DMS-114 cell line growth inhibition [AhR];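 note: spheroids exposed to agents for 7 days before readout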;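 for viability, T/C: 100% = DMSO vehicle control wells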
Conditions: for IC50: curve of first compound; for viability, T/C: stronger effect = lower value
Outline: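 Complex tumor spheroids co-cultured with HUVEC and human MSC stroma; AhR antagonists tested in combination with standard-of-care and investigational agents. Top concentration at or near clinical Cmax (else 10 microM), half-log dilutions; growth expressed as percent test/control.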

[1] = second compound 0.1 µM, first compound 0.00949 µM
[2] = second compound 0.1 µM, first compound 0.03 µM
[3] = second compound 0.1 µM, first compound 0.0949 µM
[4] = second compound 0.1 µM, first compound 0.3 µM
[5] = second compound 0.316 µM, first compound 0.00949 µM
[6] = second compound 0.316 µM, first compound 0.03 µM
[7] = second compound 0.316 µM, first compound 0.0949 µM
[8] = second compound 0.316 µM, first compound 0.3 µM
[9] = second compound 1 µM, first compound 0.00949 µM
[10] = second compound 1 µM, first compound 0.03 µM
[11] = second compound 1 µM, first compound 0.0949 µM
[12] = second compound 1 µM, first compound 0.3 µM
[13] = second compound 3.16 µM, first compound 0.00949 µM
[14] = second compound 3.16 µM, first compound 0.03 µM
[15] = second compound 3.16 µM, first compound 0.0949 µM
[16] = second compound 3.16 µM, first compound 0.3 µM
[17] = second compound 10 µM, first compound 0.00949 µM
[18] = second compound 10 µM, first compound 0.03 µM
[19] = second compound 10 µM, first compound 0.0949 µM
[20] = second compound 10 µM, first compound 0.3 µM

**Q.** For `CC1COCCN1c1cc(C2(S(C)(=N)=O)CC2)nc(-c2ccnc3[nH]ccc23)n1` (stereo not given) + Cc1cncc(-c2nc(NCCc3c[nH]c4ccccc34)c3ncn(C(C)C)c3n2)c1, which IC50 (second compound 0.1 µM) is on record?
**A.** 6130 nM

**Q.** What about the IC50 (second compound 0.316 µM) of the same molecule?
**A.** 5180 nM

**Q.** And the IC50 (second compound 1 µM)?
**A.** 5900 nM

**Q.** What about the IC50 (second compound 3.16 µM) of the same molecule?
**A.** 4840 nM

**Q.** And the IC50 (second compound 10 µM)?
**A.** 933 nM

**Q.** And the viability, T/C (second compound 0.1 µM, first compound 0.0316 µM)?
**A.** 98.5%

**Q.** And the viability, T/C (second compound 0.1 µM, first compound 0.1 µM)?
**A.** 96%

**Q.** And the viability, T/C (second compound 0.1 µM, first compound 0.316 µM)?
**A.** 119%

**Q.** What about the viability, T/C (second compound 0.1 µM, first compound 1 µM) of the same molecule?
**A.** 115%

**Q.** And the viability, T/C (second compound 0.1 µM, first compound 3.16 µM)?
**A.** 81.9%

**Q.** And the viability, T/C (second compound 0.1 µM, first compound 10 µM)?
**A.** 26.5%

**Q.** What about the viability, T/C (second compound 0.316 µM, first compound 0.0316 µM) of the same molecule?
**A.** 105%

**Q.** And the viability, T/C (second compound 0.316 µM, first compound 0.1 µM)?
**A.** 111%

**Q.** What about the viability, T/C (second compound 0.316 µM, first compound 0.316 µM) of the same molecule?
**A.** 100%

**Q.** What about the viability, T/C (second compound 0.316 µM, first compound 1 µM) of the same molecule?
**A.** 99.9%

**Q.** And the viability, T/C (second compound 0.316 µM, first compound 3.16 µM)?
**A.** 64.1%

**Q.** And the viability, T/C (second compound 0.316 µM, first compound 10 µM)?
**A.** 31%

**Q.** What about the viability, T/C (second compound 1 µM, first compound 0.0316 µM) of the same molecule?
**A.** 122%

**Q.** What about the viability, T/C (second compound 1 µM, first compound 0.1 µM) of the same molecule?
**A.** 119%

**Q.** What about the viability, T/C (second compound 1 µM, first compound 0.316 µM) of the same molecule?
**A.** 114%

**Q.** What about the viability, T/C (second compound 1 µM, first compound 1 µM) of the same molecule?
**A.** 87.7%

**Q.** And the viability, T/C (second compound 1 µM, first compound 3.16 µM)?
**A.** 77.3%

**Q.** What about the viability, T/C (second compound 1 µM, first compound 10 µM) of the same molecule?
**A.** 30.2%

**Q.** What about the viability, T/C (second compound 3.16 µM, first compound 0.0316 µM) of the same molecule?
**A.** 98%

**Q.** And the viability, T/C (second compound 3.16 µM, first compound 0.1 µM)?
**A.** 85.7%

**Q.** What about the viability, T/C (second compound 3.16 µM, first compound 0.316 µM) of the same molecule?
**A.** 93.5%

**Q.** What about the viability, T/C (second compound 3.16 µM, first compound 1 µM) of the same molecule?
**A.** 81.1%

**Q.** What about the viability, T/C (second compound 3.16 µM, first compound 3.16 µM) of the same molecule?
**A.** 64.3%

**Q.** And the viability, T/C (second compound 3.16 µM, first compound 10 µM)?
**A.** 26%

**Q.** What about the viability, T/C (second compound 10 µM, first compound 0.0316 µM) of the same molecule?
**A.** 53%

**Q.** And the viability, T/C (second compound 10 µM, first compound 0.1 µM)?
**A.** 52.3%

**Q.** And the viability, T/C (second compound 10 µM, first compound 0.316 µM)?
**A.** 67.7%

**Q.** What about the viability, T/C (second compound 10 µM, first compound 1 µM) of the same molecule?
**A.** 41.7%

**Q.** What about the viability, T/C (second compound 10 µM, first compound 3.16 µM) of the same molecule?
**A.** 39.8%

**Q.** And the viability, T/C (second compound 10 µM, first compound 10 µM)?
**A.** 19.3%

**Q.** With `Nc1ncn(C2CC(O)C(CO)S2)c(=O)n1` (stereo not given) + Cc1cncc(-c2nc(NCCc3c[nH]c4ccccc34)c3ncn(C(C)C)c3n2)c1 as the molecule, how does the IC50 (second compound 0.1 µM) read?
**A.** 222 nM

**Q.** What about the IC50 (second compound 0.316 µM) of the same molecule?
**A.** 219 nM

**Q.** And the IC50 (second compound 1 µM)?
**A.** 294 nM

**Q.** And the IC50 (second compound 3.16 µM)?
**A.** 293 nM

**Q.** And the IC50 (second compound 10 µM)?
**A.** 43.8 nM

**Q.** What about the viability, T/C (second compound 0.1 µM, first compound 0.000949 µM) of the same molecule?
**A.** 101%

**Q.** What about the viability, T/C (second compound 0.1 µM, first compound 0.003 µM) of the same molecule?
**A.** 110%

**Q.** What about the viability, T/C [1] of the same molecule?
**A.** 80.4%

**Q.** What about the viability, T/C [2] of the same molecule?
**A.** 93.2%

**Q.** What about the viability, T/C [3] of the same molecule?
**A.** 57.6%

**Q.** What about the viability, T/C [4] of the same molecule?
**A.** 46.8%

**Q.** And the viability, T/C (second compound 0.316 µM, first compound 0.000949 µM)?
**A.** 86.7%

**Q.** And the viability, T/C (second compound 0.316 µM, first compound 0.003 µM)?
**A.** 97.1%

**Q.** And the viability, T/C [5]?
**A.** 92.2%

**Q.** And the viability, T/C [6]?
**A.** 84%

**Q.** And the viability, T/C [7]?
**A.** 59.2%

**Q.** And the viability, T/C [8]?
**A.** 46.5%

**Q.** What about the viability, T/C (second compound 1 µM, first compound 0.000949 µM) of the same molecule?
**A.** 87.7%

**Q.** And the viability, T/C (second compound 1 µM, first compound 0.003 µM)?
**A.** 95.7%

**Q.** And the viability, T/C [9]?
**A.** 99.5%

**Q.** What about the viability, T/C [10] of the same molecule?
**A.** 80.1%

**Q.** And the viability, T/C [11]?
**A.** 73%

**Q.** What about the viability, T/C [12] of the same molecule?
**A.** 49.3%

**Q.** And the viability, T/C (second compound 3.16 µM, first compound 0.000949 µM)?
**A.** 102%

**Q.** What about the viability, T/C (second compound 3.16 µM, first compound 0.003 µM) of the same molecule?
**A.** 98.6%

**Q.** And the viability, T/C [13]?
**A.** 93.2%

**Q.** What about the viability, T/C [14] of the same molecule?
**A.** 94.5%

**Q.** And the viability, T/C [15]?
**A.** 58.7%

**Q.** And the viability, T/C [16]?
**A.** 49.5%

**Q.** And the viability, T/C (second compound 10 µM, first compound 0.000949 µM)?
**A.** 57%

**Q.** What about the viability, T/C (second compound 10 µM, first compound 0.003 µM) of the same molecule?
**A.** 51.4%

**Q.** And the viability, T/C [17]?
**A.** 55.5%

**Q.** And the viability, T/C [18]?
**A.** 54.7%

**Q.** And the viability, T/C [19]?
**A.** 43.7%

**Q.** What about the viability, T/C [20] of the same molecule?
**A.** 37.7%

**Q.** `O=C(C=Cn1cnc(-c2cc(C(F)(F)F)cc(C(F)(F)F)c2)n1)NNc1cnccn1` + Cc1cncc(-c2nc(NCCc3c[nH]c4ccccc34)c3ncn(C(C)C)c3n2)c1 was tested. Which IC50 (second compound 0.1 µM) did it give?
**A.** 158 nM

**Q.** And the IC50 (second compound 0.316 µM)?
**A.** 175 nM

**Q.** And the IC50 (second compound 1 µM)?
**A.** 166 nM

**Q.** What about the IC50 (second compound 3.16 µM) of the same molecule?
**A.** 166 nM

**Q.** What about the IC50 (second compound 10 µM) of the same molecule?
**A.** < 9.49 nM

**Q.** What about the viability, T/C [1] of the same molecule?
**A.** 111%

**Q.** What about the viability, T/C [2] of the same molecule?
**A.** 101%

**Q.** What about the viability, T/C [3] of the same molecule?
**A.** 61.7%

**Q.** What about the viability, T/C [4] of the same molecule?
**A.** 32.7%

**Q.** What about the viability, T/C (second compound 0.1 µM, first compound 0.949 µM) of the same molecule?
**A.** 15.1%

**Q.** And the viability, T/C (second compound 0.1 µM, first compound 3 µM)?
**A.** 5.4%

**Q.** What about the viability, T/C [5] of the same molecule?
**A.** 103%

**Q.** And the viability, T/C [6]?
**A.** 99.8%

**Q.** And the viability, T/C [7]?
**A.** 63.5%

**Q.** And the viability, T/C [8]?
**A.** 36.6%

**Q.** What about the viability, T/C (second compound 0.316 µM, first compound 0.949 µM) of the same molecule?
**A.** 14.4%

**Q.** What about the viability, T/C (second compound 0.316 µM, first compound 3 µM) of the same molecule?
**A.** 5.66%

**Q.** What about the viability, T/C [9] of the same molecule?
**A.** 110%

**Q.** And the viability, T/C [10]?
**A.** 109%

**Q.** What about the viability, T/C [11] of the same molecule?
**A.** 65.3%

**Q.** What about the viability, T/C [12] of the same molecule?
**A.** 31.7%

**Q.** And the viability, T/C (second compound 1 µM, first compound 0.949 µM)?
**A.** 13.6%

**Q.** And the viability, T/C (second compound 1 µM, first compound 3 µM)?
**A.** 5.72%

**Q.** And the viability, T/C [13]?
**A.** 94%

**Q.** What about the viability, T/C [14] of the same molecule?
**A.** 109%

**Q.** What about the viability, T/C [15] of the same molecule?
**A.** 61.1%

**Q.** What about the viability, T/C [16] of the same molecule?
**A.** 34.5%

**Q.** And the viability, T/C (second compound 3.16 µM, first compound 0.949 µM)?
**A.** 15.1%

**Q.** And the viability, T/C (second compound 3.16 µM, first compound 3 µM)?
**A.** 5.67%

**Q.** And the viability, T/C [17]?
**A.** 38.6%

**Q.** And the viability, T/C [18]?
**A.** 34.2%

**Q.** And the viability, T/C [19]?
**A.** 30.6%

**Q.** And the viability, T/C [20]?
**A.** 21.1%

**Q.** What about the viability, T/C (second compound 10 µM, first compound 0.949 µM) of the same molecule?
**A.** 13.5%

**Q.** What about the viability, T/C (second compound 10 µM, first compound 3 µM) of the same molecule?
**A.** 7.49%
